In patent US9018214B2, “Bicyclic heterocycle compounds and their uses in therapy” (Astex Therapeutics Limited, priority 2011, dated 2015):
Counter-ions that a name gives are not always drawn. Like-named read-outs stand apart in the source and are kept apart here.

Experiments:
[1] = tested on: EVSA-T (human breast carcinoma); experiment: Anti-proliferative activity, Alamar Blue assay, EVSA-T; assay type: cell-based; conditions: Homo sapiens, EVSA-T, 72 h, read-out: EVSA-T prolif (EC50)
[2] = biological target: BIR3 domain of human cIAP-1 (residues 267-363) (Homo sapiens (Human), UniProt Q13490); experiment: cIAP-1 in vitro competitive displacement binding assay (fluorescence polarization; Probe A AVPIK(5&6FAM)-amide or Probe B AbuRPFK(5&6FAM)-amide)
[3] = biological target: BIR3 domain of human XIAP (residues 252-350) (Homo sapiens (Human), UniProt P98170); experiment: XIAP in vitro competitive displacement binding assay (fluorescence polarization); conditions: for IC50: read-out: IC50 or PI Xiap: IC50
[4] = Probe B AbuRPFK(5&6FAM)-amide, read-out: IC50 or PI cIAP1: IC50
[5] = read-out: IC50 or PI cIAP1: IC50

Row | Compound | IC50 [2, 4] [nM] | IC50 [3] [nM] | also measured
1 | C[C@@H]1CN(CC(=O)N2CC(C)(C)c3ccc(Cc4ccccc4)cc32)[C@@H](CO)CN1 [Example 42, 1-(6-Benzyl-3,3-dimethyl-2,3-dihydro-indol-1-yl)-2-((2R,5R)-2-hydroxymethyl-5-methyl-piperazin-1-yl)-ethanone trifluoroacetate salt] | – | – | EC50 [1]: 2600 nM
2 | COC[C@H]1CN[C@H](C)CN1CC(=O)N1CC(C)(C)c2ccc(Cl)cc21 [Example 44, 1-(6-Chloro-3,3-dimethyl-2,3-dihydro-indol-1-yl)-2-((2R,5R)-2-methoxymethyl-5-methyl-piperazin-1-yl)-ethanone hydrochloride salt] | – | – | EC50 [1]: 6600 nM
3 | COC[C@H]1CN[C@H](C)CN1CC(=O)N1CC(C)(C)c2cnc(Cl)cc21 [Example 62, 1-(6-Chloro-3,3-dimethyl-2,3-dihydro-pyrrolo[3,2-c]pyridin-1-yl)-2-((2R,5R)-2-methoxy-methyl-5-methyl-piperazin-1-yl)-ethanone hydrochloride salt] | – | – | EC50 [1]: 3800 nM
4 | COC[C@H]1CN[C@H](C)CN1CC(=O)N1CC(C)(C)c2cnc(CCC(C)C)cc21 [Example 75, 1-[3,3-Dimethyl-6-(3-methyl-butyl)-2,3-dihydro-pyrrolo[3,2-c]pyridin-1-yl]-2-((2R,5R)-2-methoxy-methyl-5-methyl-piperazin-1-yl)-ethanone] | – | – | EC50 [1]: 500 nM
5 | COC[C@H]1CN[C@H](C)CN1CC(=O)N1CC(C)(C)c2cnc(N3CCCC3=O)cc21 [Example 102, 1-(1-{2-[(2R,5R)-2-(Methoxymethyl)-5-methylpiperazin-1-yl]acetyl}-3,3-dimethyl-1H,2H,3H-pyrrolo[3,2-c]pyridin-6-yl)pyrrolidin-2-one, hydrochloride salt] | 650 | 3200 | IC50 [2]: < 1000 nM
6 | COC[C@H]1CN[C@H](C)CN1CC(=O)N1CC(C)(C)c2cnc(-c3cnn(C)c3)cc21 [Example 124, 1-[3,3-Dimethyl-6-(1-methyl-1H-pyrazol-4-yl)-1H,2H,3H-pyrrolo[3,2-c]pyridin-1-yl]-2-[(2R,5R)-2-(methoxymethyl)-5-methylpiperazin-1-yl]ethan-1-one dihydrochloride] | – | 4000 | IC50 [2, 5]: 550 nM
7 | COC[C@H]1CN[C@H](C)CN1CC(=O)N1CC(C)(COC)c2ccc(Br)cc21 (stereo partly drawn) [Example 127, 1-[6-Bromo-3-(methoxymethyl)-3-methyl-2,3-dihydro-1H-indol-1-yl]-2-[(2R,5R)-2-(methoxymethyl)-5-methylpiperazin-1-yl]ethan-1-one hydrochloride] | 350 | 1200 | –
8 | COC[C@H]1CN[C@H](C)CN1CC(=O)N1CC(C)(C(=O)OC)c2ccc(Br)cc21 (stereo partly drawn) [Example 129, Methyl 6-bromo-1-{2-[(2R,5R)-2-(methoxymethyl)-5-methylpiperazin-1-yl]acetyl}-3-methyl-2,3-dihydro-1H-indole-3-carboxylate hydrochloride] | 480 | 1300 | –
9 | COC[C@H]1CN[C@H](C)CN1CC(=O)N1CC(C)(C)c2cnc(C(OC)c3ccccc3)cc21 (stereo partly drawn) [Example 132, 1-{6-[Methoxy(phenyl)methyl]-3,3-dimethyl-1H,2H,3H-pyrrolo[3,2-c]pyridin-1-yl}-2-[(2R,5R)-2-(methoxymethyl)-5-methylpiperazin-1-yl]ethan-1-one dihydrochloride] | – | – | EC50 [1]: 660 nM
10 | C[C@@H]1CN(CC(=O)N2CC(C)(C)c3ccc(C#N)cc32)CCN1 [Example 162, 3,3-Dimethyl-1-{2-[(3R)-3-methylpiperazin-1-yl]acetyl}-2,3-dihydro-1H-indole-6-carbonitrile] | 7900 | 5500 | –
11 | COC[C@H]1CN[C@H](C)CN1CC(=O)N1C[C@](C)(COC)c2ccc(Br)cc21 [Example 168, 1-[(3R)-6-Bromo-3-(methoxymethyl)-3-methyl-2,3-dihydro-1H-indol-1-yl]-2-[(2R,5R)-2-(methoxymethyl)-5-methylpiperazin-1-yl]ethan-1-one hydrochloride] | 890 | 4000 | –
12 | COC[C@H]1CN[C@H](C)CN1CC(=O)N1CC(C)(C)c2cnc(C(C)(F)F)cc21 [Example 181, 1-[6-(1,1-Difluoroethyl)-3,3-dimethyl-1H,2H,3H-pyrrolo[3,2-c]pyridin-1-yl]-2-[(2R,5R)-2-(methoxymethyl)-5-methylpiperazin-1-yl]ethan-1-one dihydrochloride] | – | 330 | IC50 [2]: < 1000 nM; IC50 [2, 5]: 250 nM
13 | C[C@@H]1CN(CC(=O)N2CC(C)(C)c3ncc(C(=O)c4ccccc4)cc32)[C@@H](CN2CCCC2=O)CN1 [Example 187, 1-{[(2R,5R)-1-(2-{6-Benzoyl-3,3-dimethyl-1H,2H,3H-pyrrolo[3,2-b]pyridin-1-yl}-2-oxoethyl)-5-methylpiperazin-2-yl]methyl}pyrrolidin-2-one dihydrochloride] | – | 110 | IC50 [2, 5]: 32 nM
14 | C[C@@H]1CN([C@@H](C)C(=O)N2CC(C)(C)c3ccc(C#N)cc32)CCN1 [Example 196, 3,3-Dimethyl-1-[(2S)-2-[(3R)-3-methylpiperazin-1-yl]propanoyl]-2,3-dihydro-1H-indole-6-carbonitrile hydrochloride] | 31000 | 5600 | –
15 | C[C@@H]1CN(CC(=O)N2CC(C)(C)c3ncc(C(F)(F)c4ccccc4)cc32)[C@@H](CN2CCCC2=O)CN1 [Example 210, 1-{[(2R,5R)-1-(2-{6-[Difluoro(phenyl)methyl]-3,3-dimethyl-1H,2H,3H-pyrrolo[3,2-b]pyridin-1-yl}-2-oxoethyl)-5-methylpiperazin-2-yl]methyl}pyrrolidin-2-one hydrochloride] | – | – | EC50 [1]: 54 nM
16 | COC[C@H]1CN[C@H](C)CN1CC(=O)N1CC(C)(C)c2ccc(-c3nnn[nH]3)cc21 [Example 258, 1-[3,3-Dimethyl-6-(1H-tetrazol-5-yl)-2,3-dihydro-indol-1-yl]-2-((2R,5R)-2-methoxymethyl-5-methyl-piperazin-1-yl)-ethanone hydrochloride] | – | – | inhibition at 30 µM ([2]; 3 h, Probe B, @ 30 μM, read-out: IC50 or PI cIAP1: PI): 37%; inhibition at 10 µM ([3]; 1 h, @ 10 μM, read-out: IC50 or PI Xiap: PI): 58%

More lines, main results first:

Row | IC50 [2, 4] [nM] | IC50 [3] [nM] | Compound | also measured
17 | 680 | 3100 | CC[C@H]1CN[C@H](C)CN1CC(=O)N1CC(C)(C)c2cnc(Cn3cccn3)cc21 [Example 95, 1-[3,3-Dimethyl-6-(1H-pyrazol-1-ylmethyl)-1H,2H,3H-pyrrolo[3,2-c]pyridin-1-yl]-2-[(2S,5R)-2-ethyl-5-methylpiperazin-1-yl]ethan-1-one] | –
18 | 710 | 790 | COC[C@H]1CN[C@H](C)CN1CC(=O)N1CC(C)(C)c2ccc(C#N)cc21 [Example 117, 1-{2-[(2R,5R)-2-(Methoxymethyl)-5-methylpiperazin-1-yl]acetyl}-3,3-dimethyl-2,3-dihydro-1H-indole-6-carbonitrile hydrochloride] | –
19 | 520 | 1300 | CCC1(C)CN(C(=O)CN2C[C@@H](C)NC[C@@H]2COC)c2cc(Cl)ccc21 (stereo partly drawn) [Example 123, 1-(6-Chloro-3-ethyl-3-methyl-2,3-dihydro-1H-indol-1-yl)-2-[(2R,5R)-2-(methoxymethyl)-5-methylpiperazin-1-yl]ethan-1-one hydrochloride] | –
20 | 730 | 29000 | COC[C@H]1CN[C@H](C)CN1CC(=O)N1CC(C)(C)c2ccc(CN3CCCC3=O)cc21 [Example 125, 1-[(1-{2-[(2R,5R)-2-(Methoxymethyl)-5-methylpiperazin-1-yl]acetyl}-3,3-dimethyl-2,3-dihydro-1H-indol-6-yl)methyl]pyrrolidin-2-one hydrochloride] | –
21 | 590 | 780 | COC[C@H]1CN[C@H](C)CN1CC(=O)N1CC(C)(C)c2cc(C)c(C#N)cc21 [Example 134, 1-{2-[(2R,5R)-2-(Methoxymethyl)-5-methylpiperazin-1-yl]acetyl}-3,3,5-trimethyl-2,3-dihydro-1H-indole-6-carbonitrile] | –
22 | 330 | 640 | C[C@@H]1CN(CC(=O)N2CC(C)(C)c3ccc(Cl)cc32)[C@@H](Cn2cccn2)CN1 [Example 138, 1-(6-Chloro-3,3-dimethyl-2,3-dihydro-1H-indol-1-yl)-2-[(2R,5R)-5-methyl-2-(1H-pyrazol-1-ylmethyl)piperazin-1-yl]ethan-1-one hydrochloride] | –
23 | 170 | 130 | C[C@@H]1CN(CC(=O)N2C[C@@](C)(c3ccccc3)c3ccc(C#N)cc32)[C@@H](Cn2cccn2)CN1 [Example 154, (3S)-3-Methyl-1-{2-[(2R,5R)-5-methyl-2-(1H-pyrazol-1-ylmethyl)piperazin-1-yl]acetyl}-3-phenyl-2,3-dihydro-1H-indole-6-carbonitrile] | –
24 | 260 | 72 | C[C@@H]1CN(CC(=O)N2C[C@](C)(c3ccccc3)c3ccc(C#N)cc32)[C@@H](Cn2cccn2)CN1 [Example 155, (3R)-3-Methyl-1-{2-[(2R,5R)-5-methyl-2-(1H-pyrazol-1-ylmethyl)piperazin-1-yl]acetyl}-3-phenyl-2,3-dihydro-1H-indole-6-carbonitrile] | –
25 | 320 | 920 | COC[C@H]1CN[C@H](C)CN1CC(=O)N1C[C@@](C)(COC)c2ccc(Br)cc21 [Example 169, 1-[(3S)-6-Bromo-3-(methoxymethyl)-3-methyl-2,3-dihydro-1H-indol-1-yl]-2-[(2R,5R)-2-(methoxymethyl)-5-methylpiperazin-1-yl]ethan-1-one hydrochloride] | –
26 | 630 | 1700 | COC[C@H]1CN[C@H](C)CN1CC(=O)N1CC(C)(C)c2nnc(Cl)cc21 [Example 183, 1-{3-Chloro-7,7-dimethyl-5H,6H,7H-pyrrolo[3,2-c]pyridazin-5-yl}-2-[(2R,5R)-2-(methoxymethyl)-5-methylpiperazin-1-yl]ethan-1-one hydrochloride] | IC50 [2]: < 1000 nM
